The text below walks through data of patent US6995123B2, “Use of multifunctional surface active agents to clean contact lenses” (Alcon, Inc., priority 2002, dated 2006).

This experiment has as its system protein deposits (i.e., lysozyme) from Group IV lenses. As to the kind of experiment: In vitro cleaning efficacy: removal of lysozyme deposits from soiled contact lenses. Here is the method: The formulations shown in Table 1 below were tested to evaluate the ability of the multifunctional surfactants described above to remove protein deposits (i.e., lysozyme) from Group IV lenses. The cleaning performance was compared to conventional cleaning agents. The test procedures are described below, and the cleaning results are set forth at the bottom of Table 1.
The materials and methods utilized in the evaluation were as follows: 1.311 g of monobasic sodium phosphate (monohydrate), 5.74 g of dibasic sodium phosphate (anhydrous), and 9.0 g of sodium chloride were dissolved in deionized water and the volume was brought to 1000 mL with deionized water after completely dissolving the solutes and adjusting pH (if needed). The final concentrations of sodium phosphate and sodium chloride were 0.05 M and 0.9 w/v %, respectively. The final pH was 7.4.
A 1.0-mg/mL lysozyme solution was prepared by dissolving 500 mg of lysozyme in 500-mL of phosphate buffered saline.
A lens extraction solution was prepared by mixing 1.0 mL of trifluoroacetic acid with 500-mL of acetonitrile and 500 mL of deionized water. The pH of the solution ranged from 1.5 to 2.0.
Each lens was immersed with 5 mL of lysozyme solution in a Wheaton glass sample vial. The vial was closed with a plastic snap cap and incubated in a constant temperature water bath at 37° C. for 24 hours. After incubation, the deposited lens was removed from the vial and rinsed by dipping into three consecutive beakers containing 50 mL of deionized water to remove any excess of the deposition solution. The lens was then blotted gently with a laboratory towel (Kaydry EX-L, from Kimberly-Clark). These lenses were used as a soiled lenses for the evaluation of cleaning efficacy of the test solutions.
The lens was immersed in a Wheaton glass sample vial containing 5 mL of UNISOL® 4 saline solution. The vial was closed with a plastic snap cap held secure with a metal clasp to prevent the cap from popping off during the thermal treatment. […]
Each soiled lens was soaked and shaken with 5 mL of the test solution in a scintillation vial at room temperature for 12 hours. […] The clean lenses were then subjected to the extraction procedure described below, and the amount of lysozyme present in the soaking solutions was measured with a fluorescence spectrophotometer. […]
A quantitative determination of the amount of lysozyme in the lens extract solution and lens soaking solutions was carried out by a fluorescence spectrophotometer interfaced with an autosampler and a computer. The fluorescence intensity of a 2 mL aliquot from each sample solution was measured by setting the excitation/emission wavelength at 280 nm/346 nm with excitation/emission slits of 2.5 nm/10 nm, respectively, and the sensitivity of the photomultiplier was set at 950 volts. […]

Molecules are shown by their SMILES.

`CCCCCCCCCCCC(=O)N(CCN(CC(=O)[O-])CC(=O)[O-])CC(=O)[O-].[Na+].[Na+].[Na+]` [LED3A, lauroyl ethylene diaminetriacetate]: the cleaning efficacy is, setting by setting: (LED3A 0.03% in borate buffered vehicle containing 0.6% sodium citrate) 29.5%; (LED3A 0.075% in borate buffered vehicle containing 0.6% sodium citrate) 47.5%; (LED3A 0.1% in borate buffered vehicle containing 0.6% sodium citrate) 56.0%; (LED3A 0.2% in borate buffered vehicle containing 0.6% sodium citrate) 60.2%.
